Article PMC8306930, “A Comparative Analysis of the In Vitro Anticancer Activity of Iridium(III) {η^5-C5Me4R} Complexes with Variable R Groups” (International Journal of Molecular Sciences, 2021)

Columns and labels:
[1] = tested on: SW620 human colorectal adenocarcinoma cells; test: CV viability assay, SW620; type: cell-based; settings: SW620, 72 h exposure, mean ± SD
Excerpt: (§1) The rat astrocytoma C6 cell line and murine melanoma B16 cell line were kindly gifted by Dr. L. Harhaji–Trajkovic, Institute for Biological Research “Sinisa Stankovic”—National Institute of Republic of Serbia (IBISS), and from Dr. Sinisa Radulovic (Institute for Oncology and Radiology of Serbia), respectively. Human colorectal (SW620 and HCT116), breast (MCF-7), and ovarian (A2780) cancer cell lines and non-malignant fibroblast cell line (MRC5) were purchased from the American Type Culture Collection (ATCC, Manassas, Virginia, USA). […] For viability assays, cells were seeded in listed densities/well: B16 and C6: 3 × 10^3; SW620: 9 × 10^3; A2780 and HCT116: 5 × 10^3; MCF-7: 8 × 10^3 and MRC5: 7 × 10^3. For flow cytometry, A2780 cells were seeded at 2 × 10^5 density/well in 6-well plates. Peritoneal macrophages were collected from the peritoneal cavity of C57BL/6 mice from the animal facility of IBISS by cavity lavage with ice-cold PBS. […] Macrophages were counted, seeded at 2 × 10^5 cells/well in 96-well plates for viability assay, and then left for 2 h to adhere. Before treatment, non-adherent cells were removed. The handling of animals and protocol for obtaining macrophages is in the agreement with the rules of the European Union and approved by the Institutional Animal Care and Use Committee at IBISS (No. 02-09/16).
(§2) Stock solutions of 1b, 1c, 1d, and 1e were prepared in ethanol at concentration of 20 mM and kept at −20 °C, while 10 mM stock solution of cisplatin was prepared in DMF just before the usage. Desired final concentrations were obtained by dilution in culture medium.
(§3) Cells were treated with various concentrations (up to 50 or 100 µM) of the above-mentioned complexes for 72 h. For the detection of mitochondrial respiration, cells were cultivated in the presence of MTT staining solution (0.5 mg/mL) for approximately 1 h at 37 °C. The dye was then discarded, and the formed formazan crystals (purple) were dissolved in DMSO. For an evaluation of viable attached cells, cells were fixed with 4% PFA for 10 min at room temperature, and subsequently stained for 15 min with 0.02% CV solution. […] The absorbance was measured with an automated microplate reader at 540 nm, with a reference wavelength of 670 nm. The IC50 values were calculated using a four-parameter logistic function and presented as mean ± SD from three independent experiments.

[2] = tested on: HCT116 human colorectal carcinoma cells; test: CV viability assay, HCT116; type: cell-based; settings: HCT116, 72 h exposure, mean ± SD
Excerpt: as §1, §2, §3

[3] = tested on: A2780 human ovarian cancer cells; test: CV viability assay, A2780; type: cell-based; settings: A2780, 72 h exposure, mean ± SD
Excerpt: as §1, §2, §3

[4] = tested on: SW620 human colorectal adenocarcinoma cells; test: MTT viability assay, SW620; type: cell-based; settings: SW620, 72 h exposure, mean ± SD
Excerpt: as §1, §2, §3

C6 rat glioma cells [5] = test: CV viability assay, C6; type: cell-based; settings: C6, 72 h exposure, mean ± SD
Excerpt: as §1, §2, §3

[6] = tested on: MRC5 human fibroblast cells; test: CV viability assay, MRC5; type: cell-based; settings: MRC5, 72 h exposure, mean ± SD
Excerpt: as §1, §2, §3

[7] = tested on: MRC5 human fibroblast cells; test: MTT viability assay, MRC5; type: cell-based; settings: MRC5, 72 h exposure, mean ± SD
Excerpt: as §1, §2, §3

[8] = tested on: MCF-7 human breast cancer cells; test: CV viability assay, MCF-7; type: cell-based; settings: MCF-7, 72 h exposure, mean ± SD
Excerpt: as §1, §2, §3

B16 mouse melanoma cells [9] = test: CV (crystal violet) viability assay, B16; type: cell-based; settings: B16, 72 h exposure, mean ± SD
Excerpt: as §1, §2, §3

[10] = tested on: HCT116 human colorectal carcinoma cells; test: MTT viability assay, HCT116; type: cell-based; settings: HCT116, 72 h exposure, mean ± SD
Excerpt: as §1, §2, §3

C6 rat glioma cells [11] = test: MTT viability assay, C6; type: cell-based; settings: C6, 72 h exposure, mean ± SD
Excerpt: as §1, §2, §3

[12] = tested on: A2780 human ovarian cancer cells; test: MTT viability assay, A2780; type: cell-based; settings: A2780, 72 h exposure, mean ± SD
Excerpt: as §1, §2, §3

B16 mouse melanoma cells [13] = test: MTT viability assay, B16; type: cell-based; settings: B16, 72 h exposure, mean ± SD
Excerpt: as §1, §2, §3

[14] = tested on: MCF-7 human breast cancer cells; test: MTT viability assay, MCF-7; type: cell-based; settings: MCF-7, 72 h exposure, mean ± SD
Excerpt: as §1, §2, §3

[15] = Stability in D2O mixtures by 1H NMR; type: physicochemical; settings: acetone-d6/D2O 2:1 (1b,d) or methanol-d4/D2O 2:1 (1c), 72 h at 37 °C; progressive precipitation
Method: Complexes were dissolved in acetone-d6/D2O 2:1 (1b,d), DMSO-d6/D2O 2:1 (2a–d and 3), or methanol-d4/D2O 2:1 (1c) ([Ir] ≈ 10^−3 mol L^−1), then dimethyl sulfone (0.05 mL, 0.164 mmol) was added as internal standard. The mixtures were filtered through a celite pad, and the filtrated solutions were analyzed by ^1H NMR spectroscopy.
The solutions were then stored for 72 h at 37 °C, and new NMR analyses were subsequently performed.

[16] = tested on: panel of six human and rodent cancer cell lines and MRC5; test: Cytotoxic activity over the whole cell line panel (MTT and CV); type: cell-based; settings: 72 h, all investigated cell lines
Method: Cells were treated with various concentrations (up to 50 or 100 µM) of the above-mentioned complexes for 72 h. For the detection of mitochondrial respiration, cells were cultivated in the presence of MTT staining solution (0.5 mg/mL) for approximately 1 h at 37 °C. The dye was then discarded, and the formed formazan crystals (purple) were dissolved in DMSO. For an evaluation of viable attached cells, cells were fixed with 4% PFA for 10 min at room temperature, and subsequently stained for 15 min with 0.02% CV solution. Cells were then washed with tap water, dried in air, and the CV dye was dissolved in 33% acetic acid. The absorbance was measured with an automated microplate reader at 540 nm, with a reference wavelength of 670 nm. The IC50 values were calculated using a four-parameter logistic function and presented as mean ± SD from three independent experiments.

Row | SMILES | IC50 [1] [µM] | IC50 [2] [µM] | IC50 [3] [µM] | IC50 [4] [µM] | IC50 (C6 rat glioma cells [5]) [µM] | IC50 [6] [µM] | IC50 [7] [µM] | IC50 [8] [µM] | IC50 (B16 mouse melanoma cells [9]) [µM] | IC50 [10] [µM] | IC50 (C6 rat glioma cells [11]) [µM] | IC50 [12] [µM] | IC50 (B16 mouse melanoma cells [13]) [µM] | IC50 [14] [µM] | Variation of 1H NMR spectra on storage [15] | Cytotoxic activity in words [16]
1 | N.N.[Cl][Pt][Cl] [Cisplatin, cisplatin, reference compound] | 11 ± 3 | 8 ± 0.7 | 3.8 ± 0.5 | 11.6 ± 0.1 | 1.2 ± 0.1 | 0.8 ± 0.1 | 0.6 ± 0.2 | 1.2 ± 0.3 | 11.6 ± 0.3 | 1.5 ± 0.1 | 0.6 ± 0.2 | 1.9 ± 0.2 | 5.6 ± 0.2 | 0.8 ± 0.2 | – | –
2 | Cc1[cH-]c(C)c(C)c1C.Cc1[cH-]c(C)c(C)c1C.[Cl-].[Cl-].[Cl-].[Cl-].[Ir+3].[Ir+3] [Complex 1b] | > 50 | > 50 | > 50 | > 50 | > 50 | > 50 | > 50 | > 50 | > 50 | > 50 | > 50 | > 50 | > 50 | > 50 | no significant variations | substantially inactive
3 | CCC[c-]1c(C)c(C)c(C)c1C.CCC[c-]1c(C)c(C)c(C)c1C.[Cl-].[Cl-].[Cl-].[Cl-].[Ir+3].[Ir+3] [Complex 1c] | 45 ± 8 | 38 ± 3 | 39 ± 7 | 27 ± 2 | 54 ± 5 | > 50 | 36 ± 2 | 55 ± 8 | 44 ± 8 | 30 ± 4 | 27 ± 3 | 13 ± 1 | 28 ± 4 | 28 ± 5 | no significant variations | moderate cytotoxicity
